In patent US9708306B2, “Benzimidazole derivatives and preparation process and pharmaceutical uses thereof” (WUHAN LL SCIENCE AND TECHNOLOGY DEVELOPMENT CO., LTD, priority 2015, dated 2017):
Like-named read-outs stand apart in the source and are kept apart here.

Columns and labels:
[1] = system: renovascular hypertensive rats; assay: Effect on reducing blood pressure of renovascular hypertensive rats by single oral administration of potassium salt of QR01019; assay type: in vivo, Wistar rats; settings: RHR; for Maximum blood pressure reduction / Variations on heart rate: 1.0 mg/kg, single oral administration
Experimental: Wistar rats (provided by Hubei Province Disease Prevention Control Center, Wuhan, Hubei), male, weighted of 180 to 200 g, are randomly classified into 5 groups, including negative control group (0.5% CMC-Na), positive control group (1.0 mg/kg of potassium salt of Azilsartan medoxomil as the positive drug) and three groups with the test compound, QR01019 potassium salt (1.0 mg/kg), 6-8 animals per group. The unilateral renal artery of the rates were ligated to form two-kidney, one-clip renovascular hypertensive rat (RHR) models. After the surgery, the blood pressure was measured for weekly, and the measurement continued for 4 weeks. The rats whose blood pressures were steadily elevated by 4 kPa were successfully modeled rats. Before measuring blood pressure, the rat tails were heated by using a cyclic water bath tail sleeve at 39° C. to expand tail vessel, and thereafter, a tail sleeve method (BP2010A noninvasive blood pressure meter, Beijing Jiandeer Technology Limited Corporation, No. 1, Shangdi 10th Street, Haidian District, Beijing) was used to measure the blood pressures and heart rates of the rats before the administrations and at 1, 3, 5, 7, and 10 hours after oral administration, and each of the time points was measured three times to take the mean value. Maximum Blood pressure reduction (%)=maximum blood pressure reduction value after the administration/blood pressure value before the administration*100%.

[2] = system: normal rats; assay: Effect on blood pressure of normal rats by single oral administration; assay type: in vivo, Wistar rats; settings: Rattus norvegicus, po, single, normal rats
[3] = system: renovascular hypertensive rats; assay: Effect on reducing blood pressure of renovascular hypertensive rats by single oral administration; assay type: in vivo, Wistar rats
[4] = system: spontaneously hypertensive rats (SHR); assay: Effect on reducing blood pressure of spontaneously hypertensive rats (SHR) by multiple oral administrations; assay type: in vivo; settings: for inhibition in vivo at 0.5 mg/kg / inhibition in vivo at 1 mg/kg / inhibition in vivo at 2 mg/kg: Rattus norvegicus
[5] = renal artery-ligated rat, result in words

Structure (SMILES): CCOc1nc2cccc(C(=O)OCc3oc(=O)oc3C)c2n1Cc1ccc(-c2ccccc2-c2noc(=O)[n-]2)cc1.[K+] [Positive control, potassium salt of Azilsartan medoxomil, reference compound]
- Maximum blood pressure reduction [1]: 34 ± 3.6%
- Variations on heart rate [1]: −14 ± 7%

Structure (SMILES): CCOc1nc2cccc(C(=O)OC(C)OC(=O)OCc3nc(C)c(C)nc3C)c2n1Cc1ccc(-c2ccccc2-c2noc(=O)[nH]2)cc1.[K] (centres unmarked) [QR01019 potassium salt]
- Maximum blood pressure reduction [1]: 38 ± 4.3%
- Variations on heart rate [1]: −18 ± 5%
- regulation on the heart rate compared with positive control group ([1]; result in words): obviously superior to the positive control group
- blood pressure reduction effect compared with control group ([1]; same dosage, result in words): significant blood pressure reduction effect

Structure (SMILES): CCOc1nc2cccc(C(=O)OC(C)OC(=O)OCc3nc(C)c(C)nc3C)c2n1Cc1ccc(-c2ccccc2-c2noc(=O)[nH]2)cc1 (centres unmarked) [QR01019]
- inhibition in vivo at 0.5 mg/kg ([2]; 8 h, 0.5 mg/kg p.o., read-out: blood pressure reduction at 8 h after the administration): 2.4 ± 3%
- inhibition in vivo at 1 mg/kg ([2]; 8 h, 1.0 mg/kg p.o., read-out: blood pressure reduction at 8 h after the administration): 4.2 ± 3.5%
- inhibition in vivo at 2 mg/kg ([2]; 8 h, 2.0 mg/kg p.o., read-out: blood pressure reduction at 8 h after the administration): 4.5 ± 6.5%
- change in vivo at 0.5 mg/kg ([2]; 0.5 mg/kg p.o., read-out: variations on heart rate): -5 ± 5%
- change in vivo at 1 mg/kg ([2]; 1.0 mg/kg p.o., read-out: variations on heart rate): -4 ± 6%
- change in vivo at 2 mg/kg ([2]; 2.0 mg/kg p.o., read-out: variations on heart rate): 8%
- change in vivo at 0.5 mg/kg ([3]; Rattus norvegicus, 0.5 mg/kg, single oral administration, RHR, read-out: Variations on heart rate): 12 ± 4%
- inhibition in vivo at 0.5 mg/kg ([3]; Rattus norvegicus, 0.5 mg/kg, single oral administration, two-kidney one-clip RHR, measured 1-10 h, read-out: Maximum blood pressure reduction): 24 ± 4%
- change in vivo at 1 mg/kg ([3]; Rattus norvegicus, 1.0 mg/kg, single oral administration, RHR, read-out: Variations on heart rate): 25 ± 8%
- inhibition in vivo at 1 mg/kg ([3]; Rattus norvegicus, 1.0 mg/kg, single oral administration, two-kidney one-clip RHR, measured 1-10 h, read-out: Maximum blood pressure reduction): 38 ± 3.8%
- change in vivo at 2 mg/kg ([3]; Rattus norvegicus, 2.0 mg/kg, single oral administration, RHR, read-out: Variations on heart rate): 28 ± 6%
- inhibition in vivo at 2 mg/kg ([3]; Rattus norvegicus, 2.0 mg/kg, single oral administration, two-kidney one-clip RHR, measured 1-10 h, read-out: Maximum blood pressure reduction): 45 ± 7.5%
- blood pressure reduction at 24 hours after the administration ([3]; renal artery-ligated rat, 24 hours after the administration, dose not stated): 26%
- blood pressure reduction effect compared with Azilsartan medoxomil [3, 5]: obviously superior to that of the Azilsartan medoxomil positive drug
- lasting time of the blood pressure reduction effect compared with Azilsartan medoxomil [3, 5]: close to that of Azilsartan medoxomil
- inhibition in vivo at 0.5 mg/kg ([4]; 0.5 mg/kg oral once per day, SHR, 1 hour after the administration, read-out: Maximum blood pressure reduction, 1st-day administration): 16 ± 6.2%
- inhibition in vivo at 0.5 mg/kg ([4]; 0.5 mg/kg oral once per day, SHR, 1 hour after the administration, read-out: Maximum blood pressure reduction, 7th-day administration): 15 ± 7.9%
- inhibition in vivo at 0.5 mg/kg ([4]; 0.5 mg/kg oral once per day, SHR, 1 hour after the administration, read-out: Maximum blood pressure reduction, 14th-day administration): 18 ± 4.5%
- inhibition in vivo at 0.5 mg/kg ([4]; 0.5 mg/kg oral, SHR, read-out: Heart Rate (effect on reducing heart rate)): 20 ± 6%
- inhibition in vivo at 1 mg/kg ([4]; 1.0 mg/kg oral once per day, SHR, 1 hour after the administration, read-out: Maximum blood pressure reduction, 1st-day administration): 36 ± 6.3%
- inhibition in vivo at 1 mg/kg ([4]; 1.0 mg/kg oral once per day, SHR, 1 hour after the administration, read-out: Maximum blood pressure reduction, 7th-day administration): 38 ± 4.6%
- inhibition in vivo at 1 mg/kg ([4]; 1.0 mg/kg oral once per day, SHR, 1 hour after the administration, read-out: Maximum blood pressure reduction, 14th-day administration): 35 ± 6.7%
- inhibition in vivo at 1 mg/kg ([4]; 1.0 mg/kg oral, SHR, read-out: Heart Rate (effect on reducing heart rate)): 18 ± 4%
- inhibition in vivo at 2 mg/kg ([4]; 2.0 mg/kg oral once per day, SHR, 1 hour after the administration, read-out: Maximum blood pressure reduction, 1st-day administration): 42 ± 4.8%
- inhibition in vivo at 2 mg/kg ([4]; 2.0 mg/kg oral once per day, SHR, 1 hour after the administration, read-out: Maximum blood pressure reduction, 7th-day administration): 46 ± 6.7%
- inhibition in vivo at 2 mg/kg ([4]; 2.0 mg/kg oral once per day, SHR, 1 hour after the administration, read-out: Maximum blood pressure reduction, 14th-day administration): 48 ± 8.6%
- inhibition in vivo at 2 mg/kg ([4]; 2.0 mg/kg oral, SHR, read-out: Heart Rate (effect on reducing heart rate)): 29 ± 2%
- blood pressure reduction effect compared with Azilsartan medoxomil ([4]; SHR, result in words): obviously superior to that of the Azilsartan medoxomil positive drug
- reduction effects on the heart rate of SHR rats ([4]; during the whole administration, result in words): significant reduction effects on the heart rate
